Some test systems named below: Bacillus cereus; Escherichia coli; Staphylococcus aureus; Bacillus subtilis; Candida albicans; Klebsiella pneumoniae.
Common to all, as to assay: ≥ marks a high value that may be exact or a test limit, other limits are often not marked, values filed in µg/mL are converted to µM
For assay [1], the system named is Escherichia coli ATCC 25922.
For assay [2], the system named is Bacillus subtilis ATCC 6633.
Assay [3] relates to Klebsiella pneumoniae ATCC 700603.
In assay [4] the test system is Staphylococcus epidermidis ATCC 12228.
Assay [5] concerns Staphylococcus aureus ATCC 25923.
Assay [6] deals with Pseudomonas aeruginosa ATCC 27853.
Assay [7] concerns Candida albicans ATCC 90028.
Assay [8] concerns Staphylococcus aureus ATCC 29213.
Assay [9] deals with Candida albicans ATCC 10231.

Results on 12 molecules are retold here after DBAASP.

Values after ≈ are worked out from the molar mass of the structure shown.

Turning to `CC[C@H](C)[C@H](NC(=O)[C@@H](NC(=O)[C@H](CO)NC(=O)[C@@H]1CCCN1C(=O)[C@@H](NC(=O)[C@@H](NC(=O)[C@H](CCCCN)NC(=O)[C@H](CO)NC(=O)[C@H](C)NC(=O)[C@@H](NC(=O)CNC(=O)[C@H](Cc1ccccc1)NC(=O)[C@@H](NC(=O)[C@@H](NC(=O)[C@@H](N)CO)C(C)C)C(C)C)C(C)C)C(C)C)C(C)C)C(C)C)C(=O)NCC(=O)N[C@@H](CCCCN)C(=O)N[C@H](C(=O)N[C@@H](CCCCN)C(=O)N[C@H](C(=O)O)[C@@H](C)O)C(C)C` [SVVFGVASKVVPSVIGKVKT], the minimal inhibitory concentration (MIC) in the assay on Bacillus cereus was not below 128 µM; with Escherichia coli, more than 128 µM.

In the case of `CC(C)C[C@H](NC(=O)[C@H](C)NC(=O)[C@H](CC(C)C)NC(=O)[C@H](CC(N)=O)NC(=O)[C@H](CCCCN)NC(=O)[C@H](Cc1ccccc1)NC(=O)[C@@H](NC(=O)[C@H](CC(=O)O)NC(=O)[C@H](CC(C)C)NC(=O)[C@H](Cc1ccccc1)NC(=O)CN)[C@@H](C)O)C(=O)N[C@@H](CC(N)=O)C(=O)N[C@@H](C)C(=O)N[C@@H](C)C(=O)N[C@@H](CCCCN)C(=O)N[C@@H](CO)C(=O)N[C@@H](C)C(=O)NCC(=O)N[C@H](C(=O)N[C@@H](CO)C(=O)N[C@H](C(=O)N[C@@H](CC(C)C)C(=O)N[C@@H](CC(N)=O)C(=O)N[C@@H](CO)C(=O)N[C@@H](CC(C)C)C(=O)N[C@@H](CO)C(=O)N[C@H]1CSSC[C@@H](C(=O)O)NC(=O)[C@H]([C@@H](C)O)NC(=O)[C@H](CCCCN)NC(=O)[C@H](Cc2ccccc2)NC(=O)[C@H](CC(C)C)NC(=O)[C@H](CCCCN)NC1=O)C(C)C)C(C)C` [GFLDTFKNLALNAAKSAGVSVLNSLSCKLFKTC], the MIC against Staphylococcus aureus came to 2.36 µM (≈ 8.16 µg/mL); in the assay with Bacillus subtilis, 2.36 µM (≈ 8.16 µg/mL); in the assay on Candida albicans, 1.18 µM (≈ 4.08 µg/mL); in the assay with Escherichia coli, 4.71 µM (≈ 16.3 µg/mL).

Turning to `CSCC[C@H](NC(=O)[C@H](CO)NC(=O)[C@H](Cc1ccccc1)NC(=O)[C@@H](NC(=O)[C@H](CO)NC(=O)[C@@H]1CCCN1C(=O)[C@@H](NC(=O)[C@@H](NC(=O)[C@H](CCCCN)NC(=O)[C@H](CO)NC(=O)[C@H](C)NC(=O)[C@H](CC(C)C)NC(=O)[C@H](CO)NC(=O)[C@H](Cc1ccccc1)NC(=O)[C@H](CC(C)C)NC(=O)[C@H](C)N)C(C)C)C(C)C)C(C)C)C(=O)N[C@H](C(=O)N[C@H](C(=O)N[C@@H](CCCCN)C(=O)N[C@@H](CCCCN)C(=O)O)[C@@H](C)O)C(C)C` [ALFSLASKVVPSVFSMVTKK], the MIC in the assay with Bacillus cereus is not below 120 µM; in the assay with Escherichia coli it was more than 120 µM.

With `CC[C@H](C)[C@H](NC(=O)[C@H](CC(C)C)NC(=O)[C@H](CO)NC(=O)[C@@H]1CCCN1C(=O)[C@@H](NC(=O)[C@@H](NC(=O)[C@H](CCCCN)NC(=O)[C@H](CO)NC(=O)[C@H](C)NC(=O)[C@@H](NC(=O)[C@H](CO)NC(=O)[C@H](Cc1ccccc1)NC(=O)[C@@H](NC(=O)[C@@H](NC(=O)[C@@H]1CCCN1)C(C)C)C(C)C)C(C)C)C(C)C)C(C)C)C(=O)N[C@@H](CO)C(=O)N[C@@H](C)C(=O)N[C@@H](CC(C)C)C(=O)N[C@@H](CCCCN)C(=O)N[C@@H](CCCN=C(N)N)C(=O)O` [PVVFSVASKVVPSLISALKR], the MIC with Bacillus cereus is not below 122 µM; against Escherichia coli, more than 122 µM.

For `CC(C)C[C@H](NC(=O)[C@@H](N)Cc1ccccc1)C(=O)NCC(=O)N[C@@H](CCCCN)C(=O)N[C@H](C(=O)N[C@@H](Cc1ccccc1)C(=O)N[C@@H](CCCCN)C(=O)N[C@@H](CCCCN)C(=O)N[C@@H](C)C(=O)N[C@@H](CO)C(=O)N[C@@H](CCCCN)C(=O)N[C@H](C(=O)N[C@@H](Cc1ccccc1)C(=O)N1CCC[C@H]1C(=O)N[C@@H](C)C(=O)N[C@H](C(=O)N[C@H](C(=O)NCC(=O)N[C@@H](CCCCN)C(=O)N[C@H](C(=O)O)C(C)C)C(C)C)C(C)C)C(C)C)C(C)C` [FLGKVFKKASKVFPAVVGKV], the MIC is more than 59.5 µM with Staphylococcus aureus, not below 59.5 µM against Bacillus cereus and 59.5 µM (≈ 128 µg/mL) against Escherichia coli.

As for `CC[C@H](C)[C@H](NC(=O)[C@H](CC(C)C)NC(=O)[C@H](CO)NC(=O)[C@@H]1CCCN1C(=O)[C@@H](NC(=O)[C@@H](NC(=O)[C@H](CCCCN)NC(=O)[C@H](CO)NC(=O)[C@H](C)NC(=O)[C@@H](NC(=O)[C@H](CCCN=C(N)N)NC(=O)CNC(=O)[C@@H](NC(=O)[C@@H](N)C(C)C)C(C)C)C(C)C)C(C)C)C(C)C)C(=O)NCC(=O)N[C@@H](CC(C)C)C(=O)N[C@@H](Cc1ccccc1)C(=O)N[C@H](C(=O)N[C@H](C(=O)N[C@@H](CCCCN)C(=O)O)[C@@H](C)O)[C@@H](C)O` [VVGRVASKVVPSLIGLFTTK], the MIC with Bacillus cereus was not below 124 µM; against Escherichia coli, more than 124 µM.

`CC(=O)N[C@@H](CC(C)C)C(=O)N[C@@H](Cc1ccccc1)C(=O)N[C@@H](CCCCN)C(=O)N[C@@H](CCCCN)C(=O)N[C@@H](CC(N)=O)C(=O)N[C@@H](CCCCN)C(=O)N[C@@H](CC(C)C)C(=O)N[C@@H](Cc1c[nH]c2ccccc12)C(=O)N[C@@H](Cc1ccccc1)C(=O)N[C@@H](CCCCN)C(=O)N[C@@H](CO)C(=O)N[C@@H](CCCCN)C(=O)N[C@@H](CCCCN)C(=O)N[C@@H](Cc1c[nH]c2ccccc12)C(=O)N[C@@H](CC(C)C)C(N)=O` [LFKKNKLWFKSKKWL]: the MIC came to 50 µM (≈ 102 µg/mL) in [1]; 6.4 µM (≈ 13 µg/mL) in assay [2]; 50 µM (≈ 102 µg/mL) in [3]; 25 µM (≈ 50.9 µg/mL) in assay [4]; 50 µM (≈ 102 µg/mL) in [5]; 50 µM (≈ 102 µg/mL) in [6].

With `CC[C@H](C)[C@H](NC(=O)[C@H](CCCN=C(N)N)NC(=O)[C@H](CCC(N)=O)NC(=O)[C@@H](NC(=O)[C@@H](NC(=O)[C@H](CCCN=C(N)N)NC(=O)[C@@H](N)CCCCN)[C@@H](C)CC)C(C)C)C(=O)N[C@@H](CCCCN)C(=O)N[C@@H](CC(=O)O)C(=O)N[C@@H](Cc1ccccc1)C(=O)N[C@@H](C)C(=O)N[C@@H](CCCN=C(N)N)C(=O)O` [KRIVQRIKDFAR], the minimal inhibitory concentration (MIC) in assay [1] is 20 µM (≈ 30.6 µg/mL); in assay [7], not below 40 µM; in assay [6] it was 40 µM (≈ 61.2 µg/mL); in [8], 40 µM (≈ 61.2 µg/mL).

Take `CC(C)C[C@H](NC(=O)[C@H](CCCCN)NC(=O)[C@@H](NC(=O)[C@@H](NC(=O)[C@@H](NC(=O)CNC(=O)[C@H](CC(C)C)NC(=O)[C@@H](N)Cc1ccccc1)C(C)C)C(C)C)C(C)C)C(=O)N[C@@H](C)C(=O)N[C@@H](CO)C(=O)N[C@@H](CCCCN)C(=O)N[C@H](C(=O)N[C@@H](Cc1ccccc1)C(=O)N1CCC[C@H]1C(=O)N[C@@H](C)C(=O)N[C@H](C(=O)N[C@@H](Cc1ccccc1)C(=O)NCC(=O)N[C@@H](CCCCN)C(=O)N[C@H](C(=O)O)C(C)C)C(C)C)C(C)C` [FLGVVVKLASKVFPAVFGKV]: the MIC in the assay with Staphylococcus aureus is 7.6 µM (≈ 16 µg/mL); with Bacillus cereus, 15.2 µM (≈ 32 µg/mL); in the assay on Escherichia coli it was more than 122 µM.

For the molecule `CC[C@H](C)[C@H](NC(=O)[C@H](CC(C)C)NC(=O)[C@H](CC(C)C)NC(=O)CNC(=O)[C@H](CCCCN)NC(=O)[C@H](CC(C)C)NC(=O)[C@H](CCCCN)NC(=O)[C@@H]1CCCN1C(=O)[C@H](CC(C)C)NC(=O)[C@H](CC(C)C)NC(=O)[C@H](CC(C)C)NC(=O)[C@H](CCCCN)NC(=O)[C@H](CC(C)C)NC(=O)[C@H](CC(C)C)NC(=O)[C@H](CCCCN)NC(=O)[C@@H](N)Cc1ccc(O)cc1)C(=O)N[C@@H](CCCCN)C(=O)N[C@@H](CC(C)C)C(N)=O` [YKLLKLLLPKLKGLLIKL], the values for the MIC in assay [6], in [8] and in assay [9] were 9.39 µM (≈ 19.8 µg/mL), 2.32 µM (≈ 4.9 µg/mL) and 77.6 µM (≈ 164 µg/mL), respectively.

Take `CC[C@H](C)[C@H](NC(=O)CNC(=O)[C@H](CC(N)=O)NC(=O)[C@@H](NC(=O)[C@H](C)NC(=O)[C@H](CC(N)=O)NC(=O)[C@H](CC(C)C)NC(=O)[C@H](C)NC(=O)[C@H](C)NC(=O)[C@H](CCCN=C(N)N)NC(=O)CNC(=O)[C@H](C)NC(=O)[C@H](C)NC(=O)[C@H](C)NC(=O)[C@H](C)NC(=O)[C@H](CCSC)NC(=O)[C@H](CC(=O)O)NC(=O)[C@H](CCCCN)NC(=O)[C@@H](NC(=O)[C@H](CO)NC(=O)[C@H](CO)NC(=O)[C@H](CCCN=C(N)N)NC(=O)[C@H](CC(C)C)NC(=O)[C@@H](N)CO)[C@@H](C)CC)C(C)C)C(=O)N[C@H](C(=O)N[C@@H](CC(N)=O)C(=O)N1CCC[C@H]1C(N)=O)C(C)C` [SLRSSIKDMAAAAGRAALNAVNGIVNP]: the MIC in assay [1] was 96.1 µM (≈ 256 µg/mL); in assay [5], more than 192 µM; in the assay with Klebsiella pneumoniae, more than 189 µM; against Candida albicans, 384 µM (≈ 1020 µg/mL).

Take `CC[C@H](C)[C@H](NC(=O)[C@H](C)NC(=O)CNC(=O)[C@H](CC(C)C)NC(=O)[C@@H](N)Cc1ccccc1)C(=O)N[C@@H](C)C(=O)NCC(=O)N[C@H](C(=O)N[C@@H](C)C(=O)N[C@@H](C)C(=O)N[C@@H](CCCCN)C(=O)N[C@@H](Cc1ccccc1)C(=O)N[C@@H](CC(C)C)C(=O)N1CCC[C@H]1C(=O)N[C@@H](CCCCN)C(=O)N[C@H](C(=O)N[C@@H](Cc1ccccc1)C(=O)N[C@H]1CSSC[C@@H](C(=O)O)NC(=O)[C@H](CCCCN)NC(=O)[C@H](CCCCN)NC(=O)[C@H]([C@@H](C)O)NC(=O)[C@H]([C@@H](C)CC)NC(=O)[C@H](Cc2ccccc2)NC1=O)C(C)C)C(C)C` [FLGAIAGVAAKFLPKVFCFITKKC]: the results for the MIC in assay [1], in assay [5] and in assay [7] were 25 µM (≈ 64.3 µg/mL), 3 µM (≈ 7.71 µg/mL) and 3 µM (≈ 7.71 µg/mL), respectively.
